According to patent publication US9771343B2, “2-alkyl-or-aryl-substituted tanshinone derivatives, and preparation method and application thereof” (Hangzhou Bensheng Pharmaceutical Co., Ltd., priority 2011, dated 2017):
In brackets after ≈: the same amount, converted by molar mass.

Assays:
[1] = tested on: CNE (nasopharyngeal carcinoma cell); assay: MTT cell growth inhibition, CNE cells, 72 h; assay type: cell-based, human; conditions: Homo sapiens, CNE, 72 h
Procedure: (§1) The standard sample of tanshinone I (TA) and the 2-alkyl- or 2-aromatic-substituted tanshinone I derivatives of the present invention are sufficiently dissolved in dimethylsulfoxide to produce a stock solution of 10 mg/mL, which is refrigerated at 4° C. and stored in dark, and is diluted with a cell culture medium to the desired concentration prior to experimentation.
(§2) Obtaining 6000 well-growing human solid tumor cells and inoculating them into wells of a 96-well cell culture plate. The culture medium is DMEM High Glucose cell culture medium containing 10% fetal bovine serum. The plate is placed in a carbon dioxide cell incubator (5% CO2) at 37° C. and incubated for 24 hours. After adding the 2-alkyl- or 2-aromatic-substituted tanshinone I derivatives of different concentrations and mixing uniformly, the plate is placed in a carbon dioxide cell incubator (5% CO2) at 37° C. and incubated for 72 hours. Then the viable cell concentration is determined by MTT method. In this experiment, the cell viability in control group (not treated with any compound) is set as 100%, and the cell viability (%) after treatment by the compounds and the half maximum inhibitory concentration for the leukemia cell at 72 hours (IC50 value of 72 hours, μg/mL) are calculated.

[2] = tested on: CaES-17 (esophageal cancer cell); assay: MTT cell growth inhibition, CaES-17 cells, 72 h; assay type: cell-based, human; conditions: Homo sapiens, CaEs17, CaEs-17, 72 h
Procedure: as §1, §2

[3] = tested on: NB4 (acute promyelocytic leukemia, AML); assay: MTT cell growth inhibition, NB4 leukemia cells, 72 h; assay type: cell-based
Procedure: as §1, with “with” for “with a”, “to a” for “to the”
as §2, with “leukemia” for “human solid tumor”, “the RPMI-1640” for “DMEM High Glucose”, “serum.” for “serum. The plate is placed in a carbon dioxide cell incubator (5% CO2) at 37° C. and incubated for 24 hours.”, “adding on the second day” for “adding”, “uniformly, placing” for “uniformly,”, “plate” for “plate is placed”

MG63 (osteosarcoma) = assay: MTT cell growth inhibition, MG63 cells, 72 h; assay type: cell-based, human; conditions: Homo sapiens, MG-63, 72 h
Procedure: as §1, §2

[4] = tested on: Jurkat (acute lymphoblastic leukemia, ALL); assay: MTT cell growth inhibition, Jurkat leukemia cells, 72 h; assay type: cell-based; conditions: Homo sapiens, 72 h
Procedure: as §1, with “with” for “with a”, “to a” for “to the”
as §2, with “leukemia” for “human solid tumor”, “the RPMI-1640” for “DMEM High Glucose”, “serum.” for “serum. The plate is placed in a carbon dioxide cell incubator (5% CO2) at 37° C. and incubated for 24 hours.”, “adding on the second day” for “adding”, “uniformly, placing” for “uniformly,”, “plate” for “plate is placed”

[5] = tested on: PANC-1 (pancreatic cancer); assay: MTT cell growth inhibition, PANC-1 cells, 72 h; assay type: cell-based, human; conditions: Homo sapiens, PANC-1, 72 h
Procedure: as §1, §2

[6] = tested on: U87 MG (malignant glioma cell); assay: MTT cell growth inhibition, U87 MG cells, 72 h; assay type: cell-based, human
Procedure: as §1, §2

[7] = tested on: MGC 803 (human gastric cancer cell); assay: MTT cell growth inhibition, MGC 803 cells, 72 h; assay type: cell-based
Procedure: as §1, §2

[8] = tested on: RKO (human colon adenocarcinoma cell); assay: MTT cell growth inhibition, RKO cells, 72 h; assay type: cell-based
Procedure: as §1, §2

[9] = tested on: Becap37 (human breast cancer cell); assay: MTT cell growth inhibition, Becap37 cells, 72 h; assay type: cell-based
Procedure: as §1, §2

[10] = tested on: Hep G2 (human liver cancer cell); assay: MTT cell growth inhibition, Hep G2 cells, 72 h; assay type: cell-based
Procedure: as §1, §2

A549 (human lung cancer) = assay: MTT cell growth inhibition, A549 cells, 72 h; assay type: cell-based; conditions: Homo sapiens, A549, 72 h
Procedure: as §1, §2

PC-3 (prostate cancer) = assay: MTT cell growth inhibition, PC-3 cells, 72 h; assay type: cell-based, human
Procedure: as §1, §2

[11] = tested on: H9 (acute lymphoblastic leukemia, ALL); assay: MTT cell growth inhibition, H9 leukemia cells, 72 h; assay type: cell-based
Procedure: as §1, with “with” for “with a”, “to a” for “to the”
as §2, with “leukemia” for “human solid tumor”, “the RPMI-1640” for “DMEM High Glucose”, “serum.” for “serum. The plate is placed in a carbon dioxide cell incubator (5% CO2) at 37° C. and incubated for 24 hours.”, “adding on the second day” for “adding”, “uniformly, placing” for “uniformly,”, “plate” for “plate is placed”

[12] = tested on: SK-OV-3 (ovarian cancer cell); assay: MTT cell growth inhibition, SK-OV-3 cells, 72 h; assay type: cell-based, human
Procedure: as §1, §2

[13] = tested on: Hep-2 (laryngeal carcinoma); assay: MTT cell growth inhibition, Hep-2 cells, 72 h; assay type: cell-based, human; conditions: Homo sapiens, HEp-2, 72 h
Procedure: as §1, §2

[14] = tested on: K562/adr (drug-resistant, chronic myeloid leukemia, CML); assay: MTT cell growth inhibition, K562/adr leukemia cells, 72 h; assay type: cell-based; conditions: Homo sapiens, K562/Adr
Procedure: as §1, with “with” for “with a”, “to a” for “to the”
as §2, with “leukemia” for “human solid tumor”, “the RPMI-1640” for “DMEM High Glucose”, “serum.” for “serum. The plate is placed in a carbon dioxide cell incubator (5% CO2) at 37° C. and incubated for 24 hours.”, “adding on the second day” for “adding”, “uniformly, placing” for “uniformly,”, “plate” for “plate is placed”

[15] = tested on: RPMI8226 (multiple myeloma); assay: MTT cell growth inhibition, RPMI8226 multiple myeloma cells, 72 h; assay type: cell-based, human; conditions: Homo sapiens, RPMI 8226, 72 h
Procedure: as §1, with “with” for “with a”, “to a” for “to the”
as §2, with “leukemia” for “human solid tumor”, “the RPMI-1640” for “DMEM High Glucose”, “serum.” for “serum. The plate is placed in a carbon dioxide cell incubator (5% CO2) at 37° C. and incubated for 24 hours.”, “adding on the second day” for “adding”, “uniformly, placing” for “uniformly,”, “plate” for “plate is placed”

[16] = tested on: Kasumi-1 (acute myeloid leukemia M2 type, AML-M2); assay: MTT cell growth inhibition, Kasumi-1 leukemia cells, 72 h; assay type: cell-based; conditions: Homo sapiens, Kasumi-1, 72 h
Procedure: as §1, with “with” for “with a”, “to a” for “to the”
as §2, with “leukemia” for “human solid tumor”, “the RPMI-1640” for “DMEM High Glucose”, “serum.” for “serum. The plate is placed in a carbon dioxide cell incubator (5% CO2) at 37° C. and incubated for 24 hours.”, “adding on the second day” for “adding”, “uniformly, placing” for “uniformly,”, “plate” for “plate is placed”

[17] = tested on: Hela (human cervical cancer cell); assay: MTT cell growth inhibition, Hela cells, 72 h; assay type: cell-based
Procedure: as §1, §2

Compound: Cc1c(-c2ccc(C(=O)O)cc2)oc2c1C(=O)C(=O)c1c-2ccc2c(C)cccc12 [BS-TA-302]
- IC50 ([1]; read-out: IC50): 15 µg/mL (≈ 37.8 µM)
- IC90 ([1]; read-out: IC90): > 16 µg/mL
- IC50 ([2]; read-out: IC50): 6.83 µg/mL (≈ 17.2 µM)
- IC90 ([2]; read-out: IC90): > 16 µg/mL
- IC50 ([3]; NB4, 72 h, read-out: IC50): 0.2 µg/mL (≈ 0.505 µM)
- IC90 ([3]; NB4, 72 h, read-out: IC90): 1 µg/mL (≈ 2.52 µM)
- improvement of anti-NB4 activity as compared with tanshinone I per se ([3]; NB4, vs tanshinone I): ~5 fold
- IC50 (MG63 (osteosarcoma); read-out: IC50): 1.05 µg/mL (≈ 2.65 µM)
- IC90 (MG63 (osteosarcoma); read-out: IC90): > 16 µg/mL
- IC50 ([4]; read-out: IC50): 0.84 µg/mL (≈ 2.12 µM)
- IC90 ([4]; read-out: IC90): > 16 µg/mL
- IC50 ([5]; read-out: IC50): 5.48 µg/mL (≈ 13.8 µM)
- IC90 ([5]; read-out: IC90): > 16 µg/mL
- IC50 ([6]; Homo sapiens, U-87 MG, U87-MG, 72 h, read-out: IC50): 0.5 µg/mL (≈ 1.26 µM)
- IC90 ([6]; Homo sapiens, U-87 MG, U87-MG, 72 h, read-out: IC90): > 16 µg/mL
- anti-U87 MG activity (in words) ([6]; Table 2): superior to that of tanshinone I per se
- IC50 ([7]; Homo sapiens, MGC-803, 72 h, read-out: IC50): 0.38 µg/mL (≈ 0.959 µM)
- IC90 ([7]; Homo sapiens, MGC-803, 72 h, read-out: IC90): 3.3 µg/mL (≈ 8.32 µM)
- anti-MGC 803 activity (in words) ([7]; Table 2): significantly improves
- IC50 ([8]; Homo sapiens, RKO, 72 h, read-out: IC50): 1.53 µg/mL (≈ 3.86 µM)
- IC90 ([8]; Homo sapiens, RKO, 72 h, read-out: IC90): > 16 µg/mL
- anti-RKO activity (in words) ([8]; Table 2): superior to that of tanshinone I per se
- IC50 ([9]; Homo sapiens, Becap-37, 72 h, read-out: IC50): 1.28 µg/mL (≈ 3.23 µM)
- IC90 ([9]; Homo sapiens, Becap-37, 72 h, read-out: IC90): > 16 µg/mL
- anti-Becap37 activity (in words) ([9]; Table 2): superior to that of tanshinone I per se
- IC50 ([10]; Homo sapiens, HepG2, Hep G2, 72 h, read-out: IC50): 1.94 µg/mL (≈ 4.89 µM)
- IC90 ([10]; Homo sapiens, HepG2, Hep G2, 72 h, read-out: IC90): > 16 µg/mL
- anti-Hep G2 activity (in words) ([10]; Table 2): superior to that of tanshinone I per se
- IC50 (A549 (human lung cancer); read-out: IC50): 16.6 µg/mL (≈ 41.9 µM)
- IC90 (A549 (human lung cancer); read-out: IC90): > 16 µg/mL
- IC50 (PC-3 (prostate cancer); Homo sapiens, PC-3, 72 h, read-out: IC50): 6.49 µg/mL (≈ 16.4 µM)
- IC90 (PC-3 (prostate cancer); Homo sapiens, PC-3, 72 h, read-out: IC90): > 16 µg/mL
- anti-PC-3 activity (in words) (PC-3 (prostate cancer); Table 2): significantly improves
- IC50 ([11]; H9, 72 h, read-out: IC50): 0.7 µg/mL (≈ 1.77 µM)
- IC90 ([11]; H9, 72 h, read-out: IC90): 1.98 µg/mL (≈ 4.99 µM)
- improvement of anti-H9 activity as compared with tanshinone I per se ([11]; H9, vs tanshinone I): ~5 fold
- IC50 ([12]; Homo sapiens, SK-OV-3, 72 h, read-out: IC50): 11.1 µg/mL (≈ 28 µM)
- IC90 ([12]; Homo sapiens, SK-OV-3, 72 h, read-out: IC90): > 16 µg/mL
- anti-SK-OV-3 activity (in words) ([12]; Table 2): superior to that of tanshinone I per se
- IC50 ([13]; read-out: IC50): 8 µg/mL (≈ 20.2 µM)
- IC90 ([13]; read-out: IC90): > 16 µg/mL
- IC50 ([14]; read-out: IC50): 1.08 µg/mL (≈ 2.72 µM)
- IC90 ([14]; read-out: IC90): 3.6 µg/mL (≈ 9.08 µM)
- IC50 ([15]; read-out: IC50): 1 µg/mL (≈ 2.52 µM)
- IC90 ([15]; read-out: IC90): 16.6 µg/mL (≈ 41.8 µM)
- IC50 ([16]; read-out: IC50): 3.85 µg/mL (≈ 9.71 µM)
- IC90 ([16]; read-out: IC90): 17.5 µg/mL (≈ 44.1 µM)
- IC50 ([17]; Homo sapiens, HeLa, 72 h, read-out: IC50): 0.5 µg/mL (≈ 1.26 µM)
- IC90 ([17]; Homo sapiens, HeLa, 72 h, read-out: IC90): 16 µg/mL (≈ 40.4 µM)
- anti-Hela activity (in words) ([17]; Table 2): superior to that of tanshinone I per se
